The target in one series is T1, NK1 Receptor (Homo sapiens, UniProt P25103).
T1 construct: Measurement of NK1 Receptor Mediated Intracellular [Ca^2+]; Mobilization in U251 MG Cells Using FLIPR; endogenous in cells; host or cells: U251 MG cells
Kind of series: NK1 receptor mediated intracellular [Ca2+] mobilization in U251 MG cells using FLIPR. As to conditions: antagonism of Substance P (EC80), Fluo-4, read-out: NK1R mediated intracellular [Ca^2+] mobilization IC 50. The class given is cell-based. Here is the method:
Measurement of NK1 Receptor Mediated Intracellular [Ca^2+] Mobilization in U251 MG Cells Using FLIPR
U251 MG cells were seeded into black walled clear-bottom 384-well plates (Greiner Bio-One GmbH, Frickenhausen, Germany) at a density of 15,000 cells/well in 50 μl culture medium and cultured overnight in a 37° C. 5% CO2 incubator. The cells were then loaded with the calcium sensitive dye Fluo-4 (Invitrogen) at 1 μM in buffer, containing 0.04% Pluronic F-127 (Sigma-Aldrich), and 2.5 mM probenecid (Sigma-Aldrich) for 60 min in a humidified atmosphere of 5% CO2. Thereafter, cells were washed three times in washing buffer containing 20 mM HEPES and 2.5 mM probenecid pH 7.3. Serial dilutions of test compounds in assay buffer containing 2% dimethyl sulfoxide (final concentration in the cell plate is 0.5% DMSO) and/or agonist were then automatically pipetted into each test well, and the peak fluorescence intensity was recorded (lex, 488 nm; lem, 540 nm) by the FLIPR instrument (Molecular Devices) for approximately 5 min. To measure antagonist potency, cell plates were first incubated with the test compound and intracellular fluorescence recorded for 5 minutes to check a potential agonist effect of the test compound. Cell plates were quickly removed from the FLIPR instrument and incubated for additional 10 minutes at 37° C. before being moved back to the FLIPR instrument for Substance P (EC80) addition. The response was measured as the peak relative fluorescence change after agonist addition.
Compound relative %-effect was normalized to the maximal response evoked by 100 nM Aprepitant in presence of the EC80 of Substance P and the antagonist potency determined by non-linear regression using GraphPad Prism (version 5) or the four-parameter logistic model in XLfit (IDBS, Guilford, UK) for Microsoft Excel (Microsoft, Redmond, Wash.). The IC50 value is defined as the molar concentration of a test compound that produces a response midway between the fitted top and the fitted bottom. pIC50=−log IC50
Formula is listed as follows:
Fit (% Effect calculated)=(A+((B−A)/(1+((C/X)̂D)))) • A: bottom value • B: top value • C: test compound concentration • X: Relative IC50 • D: Hill slope coefficient
Ref: Sullivan E, Tucker E M, and Dale I L. Measurement of [Ca^2+] using the Fluorometric Imaging Plate Reader (FLIPR). Methods Mol Biol 114:125-133, 1999.
Compounds of the present invention were tested according to example 100.

Series [1] is described as follows: Hepatic intrinsic clearance following incubation in human liver microsomes. The class given is in vitro ADME. As to conditions: 0.5 μM test compound, NADPH, 0-30 min, scaled to g liver. Here is the method: Hepatic Extraction Ratio from Hepatic Intrinsic Clearance Following Incubation in Human Liver Microsomes
The general procedure consists of an automated incubation system and LC-MS/MS analysis with human liver microsomes. Human liver microsomes are thawed rapidly in a waterbath at 37° C. and kept on ice until use. The human liver microsomes are diluted with 50 mM potassium phosphate buffer pH 7.4 to a protein concentration of 0.55 mg/mL. Test compounds and positive controls (Verapamil and Dextromethorphan, positive controls for CYP3A4 for CYP2D6 isoforms, respectively) are dissolved in methanol (or other appropriate solvent, if necessary) in order to obtain a 5 mM solution which is further diluted to the concentration of 50 μM. The stock solutions are prepared immediately before the test.
5 μL of 50 μM test compounds and controls are added to 445 μL-of the 0.55 mg/mL microsomes solution and the incubation mixture are pre-warmed at 37° C. for 5 minutes. The incubation reactions are initiated by adding 50 μL of pre-warmed NADPH regenerating system to the incubation mixtures. 50 μL-aliquots will be taken from the incubation mixtures at: 0, 3, 6, 9, 15 and 30 minutes and the reactions are stopped by adding 100 μL of ACN containing Rolipram, used as generic Internal Standard (IS). Samples are then diluted with 120 μL of Milli-Q water and centrifuged at 3000 rpm for 10 minutes, prior the LC-MS/MS analysis.
The integrated peak areas for test compounds at the selected time points are divided by the respective peak areas of the IS and the percent of parent remaining is calculated by normalizing the peak area ratio of parent to IS at 0 min. Observed rate constant (kobs) for parent degradation is calculated by determining the slope of the line of the graph of the natural log of percentage parent remaining versus time of incubation. From the rate of depletion (min−1) and volume of the incubation (mL), clearance is estimated. This is scaled for the protein in the incubation relative to that in the intact liver, for all species (mL/min/g liver).
Values for the Human in vitro Clint are expressed as mL/min/g liver.
Assuming a liver weight of 25.7 g/kg and a liver blood flow of 20.7 mL/min/kg, the hepatic extraction ratio, Eh, can be derived from the Human in vitro Clint:
E.g. a Human in vitro Clint of 2.4 mL/min/g liver corresponds to a hepatic extraction ratio of 75%.
Some compounds of the present invention were tested according to example 101.
For orientation: Liver microsomes are a subcellular fraction often used to study metabolism.

T1 sequence (P25103 whole entry): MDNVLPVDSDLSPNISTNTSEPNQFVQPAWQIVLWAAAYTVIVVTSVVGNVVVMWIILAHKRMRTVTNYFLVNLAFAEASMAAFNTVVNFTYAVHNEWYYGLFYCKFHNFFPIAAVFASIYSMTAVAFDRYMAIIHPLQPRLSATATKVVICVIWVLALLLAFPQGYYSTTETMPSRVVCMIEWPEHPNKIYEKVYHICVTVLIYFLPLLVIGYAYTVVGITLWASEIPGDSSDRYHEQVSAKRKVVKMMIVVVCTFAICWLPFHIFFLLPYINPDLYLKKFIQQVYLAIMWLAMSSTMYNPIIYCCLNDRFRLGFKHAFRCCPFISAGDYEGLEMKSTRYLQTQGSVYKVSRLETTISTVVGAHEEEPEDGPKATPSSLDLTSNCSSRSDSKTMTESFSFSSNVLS

As for `Cc1ccc(C)c([C@H]2[C@@H]3CC(CCO)(CCO)C(=O)N3CCN2C(=O)N(C)[C@H](C)c2cc(C(C)C)cc(C(F)(F)F)c2)c1` [Compound 38, (1S,8aS)-1-(2,5-dimethylphenyl)-7,7-bis(2-hydroxyethyl)-N—((R)-1-(3-isopropyl-5-(trifluoromethyl)phenyl)ethyl)-N-methyl-6-oxohexahydropyrrolo[1,2-a]pyrazine-2(1H)-carboxamide], the IC50 at NK1 Receptor came to 118 pM. The “Human in vitro Clint” value in series [1] came to 157 mL/min/g.

As for `Cc1cc(CN(C)C(=O)N2CCN3C(=O)C(CCO)(CCO)C[C@H]3[C@@H]2c2ccccc2C)nc(C(F)(F)F)c1` [Compound 33, (1S,8aS)-7,7-bis(2-hydroxyethyl)-N-methyl-N-((4-methyl-6-(trifluoromethyl)pyridin-2-yl)methyl)-6-oxo-1-o-tolylhexahydropyrrolo[1,2-a]pyrazine-2(1H)-carboxamide], the IC50 at NK1 Receptor worked out at 139 pM. In addition, the “Human in vitro Clint” value in series [1] was greater than 200 mL/min/g.

As to `Cc1cc(F)ccc1C1C2CC(CCO)(CCO)C(=O)N2CCN1C(=O)N(C)[C@H](C)c1cc(Cl)cc(C(F)(F)F)c1` (single isomer, unassigned) [Compound 10], on NK1 Receptor, the IC50 was 63 pM. Further, the “Human in vitro Clint” value in series [1] was greater than 200 mL/min/g.

With `C[C@H](c1cc(C(F)(F)F)cc(C(F)(F)F)c1)N(C)C(=O)N1CCN2C(=O)CC[C@H]2[C@@H]1c1cccc2c1CCC2` [Compound 79, (1S,8aS)—N—((R)-1-(3,5-bis(trifluoromethyl)phenyl)ethyl)-1-(2,3-dihydro-1H-inden-4-yl)-N-methyl-6-oxohexahydropyrrolo[1,2-a]pyrazine-2(1H)-carboxamide], the IC50 on NK1 Receptor was 2570 pM. For the same molecule, in series [1], the “Human in vitro Clint” value was greater than 200 mL/min/g.

In the case of `COc1cccc([C@H]2[C@@H]3CCC(=O)N3CCN2C(=O)N(C)[C@H](C)c2cc(C(C)C)cc(C(F)(F)F)c2)c1C` [Compound 78, (1S,8aS)—N—((R)-1-(3-isopropyl-5-(trifluoromethyl)phenyl)ethyl)-1-(3-methoxy-2-methylphenyl)-N-methyl-6-oxohexahydropyrrolo[1,2-a]pyrazine-2(1H)-carboxamide], the IC50 on NK1 Receptor came to 1860 pM. Moreover, the “Human in vitro Clint” value in series [1] is greater than 200 mL/min/g.

Consider `CCc1cc([C@@H](C)N(C)C(=O)N2CCN3C(=O)CC[C@H]3[C@@H]2c2scc(C)c2C)cc(C(F)(F)F)c1` [Compound 76, (1R,8aS)-1-(3,4-dimethylthiophen-2-yl)-N—((R)-1-(3-ethyl-5-(trifluoromethyl)phenyl)ethyl)-N-methyl-6-oxohexahydropyrrolo[1,2-a]pyrazine-2(1H)-carboxamide], for which the IC50 at NK1 Receptor amounted to 260 pM. Further, in series [1], the “Human in vitro Clint” value was greater than 200 mL/min/g.

In the case of `Cc1ccc([C@@H]2[C@H]3CC(CCO)(CCO)C(=O)N3CCN2C(=O)N(C)Cc2cc(C(F)(F)F)cc(C(F)(F)F)c2)c(C)c1` (racemic) [Compound 9, N-(3,5-bis(trifluoromethyl)benzyl)-1-(2,4-dimethylphenyl)-7,7-bis(2-hydroxyethyl)-N-methyl-6-oxohexahydropyrrolo[1,2-a]pyrazine-2(1H)-carboxamide], the IC50 at NK1 Receptor came to 180 pM. Further, the “Human in vitro Clint” value in series [1] is greater than 200 mL/min/g.

For the molecule `COc1ccc([C@H]2[C@@H]3CC(CCO)(CCO)C(=O)N3CCN2C(=O)N(C)[C@H](C)c2cc(C(F)(F)F)cc(C(F)(F)F)c2)c(C)c1` [Compound 29, (1S,8aS)—N—((R)-1-(3,5-bis(trifluoromethyl)phenyl)ethyl)-7,7-bis(2-hydroxyethyl)-1-(4-methoxy-2-methylphenyl)-N-methyl-6-oxohexahydropyrrolo[1,2-a]pyrazine-2(1H)-carboxamide], the IC50 on NK1 Receptor amounted to 114 pM. Moreover, the “Human in vitro Clint” value in series [1] is greater than 200 mL/min/g.

With `Cc1cc(F)ccc1C1C2CC(CCO)(CCO)C(=O)N2CCN1C(=O)N(C)[C@H](C)c1cc(C(F)(F)F)cc(C(F)(F)F)c1` (single isomer, unassigned) [Compound 14], on NK1 Receptor, the IC50 came out at 94 pM. In series [1], the “Human in vitro Clint” value was greater than 200 mL/min/g.

With `Cc1cc(F)ccc1C1C2CC(CCO)(CCO)C(=O)N2CCN1C(=O)N(C)[C@H](C)c1cc(C(F)(F)F)cc(C(F)(F)F)c1` (single isomer, unassigned) [Compound 15], the IC50 on NK1 Receptor stood at 2540 pM. Besides, the “Human in vitro Clint” value in series [1] was determined as 104 mL/min/g.

As for `Cc1cc([C@@H](C)N(C)C(=O)N2CCN3C(=O)CC[C@H]3[C@@H]2c2ccc(F)cc2C)cc(C(F)(F)F)c1` [Compound 21, (1S,8aS)-1-(4-fluoro-2-methylphenyl)-N-methyl-N—((R)-1-(3-methyl-5-(trifluoromethyl)phenyl)ethyl)-6-oxohexahydropyrrolo[1,2-a]pyrazine-2(1H)-carboxamide], at NK1 Receptor, the IC50 turned out to be 83 pM. In addition, the “Human in vitro Clint” value in series [1] worked out at 36 mL/min/g.

On to `Cc1cc([C@@H](C)N(C)C(=O)N2CCN3C(=O)C(CCO)(CCO)CC3C2c2ccc(F)cc2C)cc(C(F)(F)F)c1` (single isomer, unassigned) [Compound 13], for which the IC50 at NK1 Receptor stood at 34 pM. Besides, the “Human in vitro Clint” value in series [1] is greater than 200 mL/min/g.

For `Cc1cc(F)ccc1[C@H]1[C@@H]2CCC(=O)N2CCN1C(=O)N(C)[C@H](C)c1cc(C(F)(F)F)cc(C(F)(F)F)c1` [Compound 20, (1S,8aS)—N—((R)-1-(3,5-bis(trifluoromethyl)phenyl)ethyl)-1-(4-fluoro-2-methylphenyl)-N-methyl-6-oxohexahydropyrrolo[1,2-a]pyrazine-2(1H)-carboxamide], the IC50 on NK1 Receptor was determined as 137 pM. In series [1], the “Human in vitro Clint” value came to 40 mL/min/g.

As to `Cc1ccc(C2C3CCC(=O)N3CCN2C(=O)N(C)[C@H](C)c2cc(C(F)(F)F)cc(C(F)(F)F)c2)c(C)c1` (single isomer, unassigned) [Compound 1], the IC50 on NK1 Receptor was determined as 154 pM. Also, the “Human in vitro Clint” value in series [1] is greater than 200 mL/min/g.

Regarding `C[C@H](c1cc(C(F)(F)F)cc(C(F)(F)F)c1)N(C)C(=O)N1CCN2C(=O)CC[C@H]2[C@@H]1c1ccc(F)cc1` [Compound 85, (1S,8aS)—N—((R)-1-(3,5-bis(trifluoromethyl)phenyl)ethyl)-1-(4-fluorophenyl)-N-methyl-6-oxohexahydropyrrolo[1,2-a]pyrazine-2(1H)-carboxamide], the IC50 on NK1 Receptor is 100000 pM. In addition, the “Human in vitro Clint” value in series [1] was greater than 200 mL/min/g.

As to `CCc1cc([C@@H](C)N(C)C(=O)N2CCN3C(=O)CC[C@H]3[C@@H]2c2ccsc2C)cc(C(F)(F)F)c1` [Compound 56, (1S,8aS)—N—((R)-1-(3-ethyl-5-(trifluoromethyl)phenyl)ethyl)-N-methyl-1-(2-methylthiophen-3-yl)-6-oxohexahydropyrrolo[1,2-a]pyrazine-2(1H)-carboxamide], the IC50 at NK1 Receptor is 1510 pM. In addition, the “Human in vitro Clint” value in series [1] is greater than 200 mL/min/g.

For the origin of these results see patent publication US20160207930A1 (LEO PHARMA A/S, priority 2013, published 2016).
